Assay results published in US8859584B2, “TRPV1 antagonists” (AbbVie Inc., priority 2011, dated 2014).
One block for each molecule: values may come before it.

Legend:
[1] = molecular target: T1, human TRPV1 (Homo sapiens, UniProt Q8NER1); assay: Capsaicin Activation Assay (FLIPR intracellular Ca2+, recombinant HEK293 cells); type: cell-based; details: recombinant HEK293 cells expressing hTRPV1; 50 nM capsaicin; read-out: human TRPV1 capsaicin IC50
T1 construct: expressed in transfected cells

[2] = molecular target: T1, human TRPV1; assay: Acid Activation Assay (pH 5.0, FLIPR intracellular Ca2+, recombinant HEK293 cells); type: cell-based; details: percentage of maximal pH 5.0-induced response remaining; HEK293 hTRPV1; max concentration 37.5 μM
Outline: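 HEK293 cells stably expressing recombinant hTRPV1 were loaded with calcium dye for 90-120 min at 25° C and pre-treated with compound for 3 min before a pH 5.0 (DPBS/MES) challenge. Peak FLIPR fluorescence over baseline is given as percentage of the maximal pH 5.0-induced response.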

T1 sequence (Q8NER1 whole entry): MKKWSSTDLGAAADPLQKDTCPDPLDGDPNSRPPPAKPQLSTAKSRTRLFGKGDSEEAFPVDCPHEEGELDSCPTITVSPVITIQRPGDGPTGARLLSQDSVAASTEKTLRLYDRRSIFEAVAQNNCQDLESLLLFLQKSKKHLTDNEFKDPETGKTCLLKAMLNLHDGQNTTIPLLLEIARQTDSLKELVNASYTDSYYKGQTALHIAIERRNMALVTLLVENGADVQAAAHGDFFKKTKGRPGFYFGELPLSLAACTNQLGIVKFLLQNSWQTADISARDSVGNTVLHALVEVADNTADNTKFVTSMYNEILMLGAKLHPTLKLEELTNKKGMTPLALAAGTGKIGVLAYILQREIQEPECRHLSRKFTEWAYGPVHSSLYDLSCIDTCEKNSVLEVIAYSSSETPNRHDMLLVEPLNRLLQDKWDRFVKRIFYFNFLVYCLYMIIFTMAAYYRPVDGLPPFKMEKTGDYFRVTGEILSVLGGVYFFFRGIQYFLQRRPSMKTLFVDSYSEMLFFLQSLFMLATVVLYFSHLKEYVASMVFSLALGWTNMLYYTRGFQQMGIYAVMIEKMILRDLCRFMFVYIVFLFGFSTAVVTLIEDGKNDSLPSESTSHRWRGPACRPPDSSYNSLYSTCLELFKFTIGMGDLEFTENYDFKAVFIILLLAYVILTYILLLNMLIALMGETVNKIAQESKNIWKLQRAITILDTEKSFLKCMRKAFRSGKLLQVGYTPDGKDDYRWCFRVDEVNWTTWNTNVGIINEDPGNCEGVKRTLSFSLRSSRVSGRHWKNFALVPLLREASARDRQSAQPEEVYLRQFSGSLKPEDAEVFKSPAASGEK

SMILES: CC1(C)C[C@@H](NC(=O)Nc2ccc(F)c3c2C[C@H](O)C3)c2ccc(F)cc2O1 [Example 138, 1-[(4R)-7-fluoro-2,2-dimethyl-3,4-dihydro-2H-chromen-4-yl]-3-[(2S)-7-fluoro-2-hydroxy-2,3-dihydro-1H-inden-4-yl]urea]
IC50 [1]: 820 nM
human TRPV1 H+ (max % remain) [2]: 4%

SMILES: O=C(Nc1cccc2c1C[C@@H](O)C2)N[C@@H]1CC(CF)(CF)Oc2ccccc21 [Example 86, 1-[(4R)-2,2-bis(fluoromethyl)-3,4-dihydro-2H-chromen-4-yl]-3-[(2S)-2-hydroxy-2,3-dihydro-1H-inden-4-yl]urea]
IC50 [1]: 1600 nM
human TRPV1 H+ (max % remain) [2]: 46%

SMILES: C[C@]1(CF)C[C@@H](NC(=O)Nc2ccc3c(c2)C(O)C3)c2ccc(Cl)cc2O1 (stereo partly drawn) [Example 131, 1-[(2R,4R)-7-chloro-2-(fluoromethyl)-2-methyl-3,4-dihydro-2H-chromen-4-yl]-3-(8-hydroxybicyclo[4.2.0]octa-1,3,5-trien-3-yl)urea]
IC50 [1]: 1000 nM
human TRPV1 H+ (max % remain) [2]: 92%

SMILES: O=C(Nc1ccc(F)c2c1C[C@@H](O)C2)N[C@@H]1CCOc2cc(OC(F)(F)F)ccc21 [Example 168, 1-[(2R)-7-fluoro-2-hydroxy-2,3-dihydro-1H-inden-4-yl]-3-[(4R)-7-(trifluoromethoxy)-3,4-dihydro-2H-chromen-4-yl]urea]
IC50 [1]: 850 nM
human TRPV1 H+ (max % remain) [2]: 70%

SMILES: CC1(C)C[C@@H](NC(=O)Nc2ccc(F)c3c2C[C@H](O)C3)c2cc(F)ccc2O1 [Example 146, 1-[(4R)-6-fluoro-2,2-dimethyl-3,4-dihydro-2H-chromen-4-yl]-3-[(2S)-7-fluoro-2-hydroxy-2,3-dihydro-1H-inden-4-yl]urea]
IC50 [1]: 2800 nM
human TRPV1 H+ (max % remain) [2]: 7%

SMILES: O=C(Nc1cccc2c1C[C@H](O)C2)N[C@H]1CCOc2cc(OC(F)(F)F)ccc21 [Example 93, 1-[(2R)-2-hydroxy-2,3-dihydro-1H-inden-4-yl]-3-[(4S)-7-(trifluoromethoxy)-3,4-dihydro-2H-chromen-4-yl]urea]
IC50 [1]: 41000 nM
human TRPV1 H+ (max % remain) [2]: 57%

SMILES: CC1(C)C[C@@H](NC(=O)Nc2ccc(F)c3c2C[C@H](O)C3)c2ccc(F)c(F)c2O1 [Example 153, 1-[(4R)-7,8-difluoro-2,2-dimethyl-3,4-dihydro-2H-chromen-4-yl]-3-[(2S)-7-fluoro-2-hydroxy-2,3-dihydro-1H-inden-4-yl]urea]
IC50 [1]: 760 nM
human TRPV1 H+ (max % remain) [2]: 2%

SMILES: O=C(Nc1cccc2c1C[C@H](O)C2)N[C@@H]1CC2(CCC2)Oc2ccc(F)cc21 [Example 8, 1-[(4R)-6-fluoro-3,4-dihydrospiro[chromene-2,1′-cyclobutan]-4-yl]-3-[(2R)-2-hydroxy-2,3-dihydro-1H-inden-4-yl]urea]
IC50 [1]: 35 nM
human TRPV1 H+ (max % remain) [2]: 50%

SMILES: O=C(Nc1cccc2c1C[C@H](O)C2)N[C@H]1CC(CF)(CF)Oc2cc(Cl)ccc21 [Example 97, 1-[(4S)-7-chloro-2,2-bis(fluoromethyl)-3,4-dihydro-2H-chromen-4-yl]-3-[(2R)-2-hydroxy-2,3-dihydro-1H-inden-4-yl]urea]
IC50 [1]: 1100 nM
human TRPV1 H+ (max % remain) [2]: 58%

SMILES: O=C(NCC1COc2ccc(F)cc2C1)Nc1cccc2c1C[C@H](O)C2 (stereo partly drawn) [Example 28, 1-[(6-fluoro-3,4-dihydro-2H-chromen-3-yl)methyl]-3-[(2R)-2-hydroxy-2,3-dihydro-1H-inden-4-yl]urea]
IC50 [1]: 290 nM
human TRPV1 H+ (max % remain) [2]: 58%

SMILES: O=C(Nc1cccc2c1C[C@@H](O)C2)N[C@@H]1CC(CF)(CF)Oc2c(F)cc(F)cc21 [Example 79, 1-[(4R)-6,8-difluoro-2,2-bis(fluoromethyl)-3,4-dihydro-2H-chromen-4-yl]-3-[(2S)-2-hydroxy-2,3-dihydro-1H-inden-4-yl]urea]
IC50 [1]: 710 nM
human TRPV1 H+ (max % remain) [2]: 15%

SMILES: O=C(Nc1cccc2c1C[C@H](O)C2)N[C@@H]1CCc2cc(F)ccc21 [Example 92, 1-[(1R)-5-fluoro-2,3-dihydro-1H-inden-1-yl]-3-[(2R)-2-hydroxy-2,3-dihydro-1H-inden-4-yl]urea]
IC50 [1]: 270 nM
human TRPV1 H+ (max % remain) [2]: 60%

Results, then the molecule that gave them:

IC50 [1]: 520 nM
human TRPV1 H+ (max % remain) [2]: 52%
SMILES: CC1(C)C[C@@H](NC(=O)Nc2cccc3c2C[C@@H](O)C3)c2cccc(F)c2O1 [Example 71, 1-[(4R)-8-fluoro-2,2-dimethyl-3,4-dihydro-2H-chromen-4-yl]-3-[(2S)-2-hydroxy-2,3-dihydro-1H-inden-4-yl]urea]

IC50 [1]: 52 nM
human TRPV1 H+ (max % remain) [2]: 23%
SMILES: CCC1(CC)C[C@@H](NC(=O)Nc2cccc3c2C[C@H](O)C3)c2ccc(OC(F)(F)F)cc2O1 [Example 60, 1-[(4R)-2,2-diethyl-7-(trifluoromethoxy)-3,4-dihydro-2H-chromen-4-yl]-3-[(2R)-2-hydroxy-2,3-dihydro-1H-inden-4-yl]urea]

IC50 [1]: 15 nM
human TRPV1 H+ (max % remain) [2]: 72%
SMILES: CC1(C)C[C@@H](NC(=O)Nc2cccc3c2C[C@H](O)C3)c2cccc(C(F)(F)F)c2O1 [Example 29, 1-[(4R)-2,2-dimethyl-8-(trifluoromethyl)-3,4-dihydro-2H-chromen-4-yl]-3-[(2R)-2-hydroxy-2,3-dihydro-1H-inden-4-yl]urea]

IC50 [1]: 11 nM
human TRPV1 H+ (max % remain) [2]: 14%
SMILES: CC1(C)C[C@@H](NC(=O)Nc2cccc3c2C[C@@H](O)C3)c2ccc(Cl)c(F)c2O1 [Example 35, 1-[(4R)-7-chloro-8-fluoro-2,2-dimethyl-3,4-dihydro-2H-chromen-4-yl]-3-[(2S)-2-hydroxy-2,3-dihydro-1H-inden-4-yl]urea]

IC50 [1]: 36 nM
human TRPV1 H+ (max % remain) [2]: 64%
SMILES: C[C@@]1(C(F)F)C[C@@H](NC(=O)Nc2cccc3c2C[C@H](O)C3)c2ccc(Cl)cc2O1 [Example 20, 1-[(2S,4R)-7-chloro-2-(difluoromethyl)-2-methyl-3,4-dihydro-2H-chromen-4-yl]-3-[(2R)-2-hydroxy-2,3-dihydro-1H-inden-4-yl]urea]

IC50 [1]: 13 nM
human TRPV1 H+ (max % remain) [2]: 56%
SMILES: O=C(Nc1cccc2c1C[C@H](O)C2)N[C@@H]1CCc2c1cccc2C(F)(F)F [Example 41, 1-[(2R)-2-hydroxy-2,3-dihydro-1H-inden-4-yl]-3-[(1R)-4-(trifluoromethyl)-2,3-dihydro-1H-inden-1-yl]urea]

IC50 [1]: 17 nM
human TRPV1 H+ (max % remain) [2]: 72%
SMILES: CC1(CF)C[C@@H](NC(=O)Nc2cccc3c2C[C@H](O)C3)c2ccc(Cl)cc2O1 (stereo partly drawn) [Example 67, 1-[(4R)-7-chloro-2-(fluoromethyl)-2-methyl-3,4-dihydro-2H-chromen-4-yl]-3-[(2R)-2-hydroxy-2,3-dihydro-1H-inden-4-yl]urea]
